Measurements as given in patent US7612108B2, “2-phenylthiophene derivative” (Astellas Pharma Inc., priority 2004, dated 2009).

The compounds below were run on pyrimidine synthetic pathway (assay: Pyrimidine synthetic pathway-inhibitory action (influence on BUN level)). Settings: oral administration of 30 mg/kg.
Type: in vivo
From the text: Allopurinol which is an existing hyperuricemia therapeutic drug is known to cause renal dysfunction as an undesirable action. As mentioned previously, since allopurinol has a nucleic acid-like structure, as one cause thereof, it is presumed that it inhibits pyrimidine synthetic pathway. […] Thus, according to the method described in the document, the influence of the compounds of the invention on a BUN level was confirmed.

In the case of `CCCOc1ccc(-c2ccc(C(=O)[O-])s2)cc1C#N.[Na+]` [Example 1, sodium 5-(3-cyano-4-n-propoxyphenyl)thiophene-2-carboxylate], the “inhibitory action on pyrimidine synthetic pathway (influence on BUN level)” value is reported as “no inhibitory action”.

Each compound was assayed on male Wistar rats (assay: Trinitrobenzenesulfonic acid (TNBS)-induced enteritis-inhibitory action). Settings: 3 mg/kg oral once a day, 21st day.
Type: in vivo, rat
Experimental: The effectiveness of the compound of the invention on an enteritis model can be also evaluated by a model using trinitrobenzenesulfonic acid (TNBS) as an inducing agent instead of acetic acid (Cell. Mol. Biol, 38, 189-199, 1992). Thus, referring to the method described in the report, the enteritis-suppressing action of the compound of the invention was evaluated.
Namely, TNBS or physiological saline as a normal group was administered into the rectum of male Wistar rats of 200 to 250 g. Thereafter, a test compound or 0.5% methyl cellulose (control group) was orally administered once a day and dissection was performed on each administered group on 21st day. A part of the large intestine 2 to 7 cm from the anus side was cut out and incised. After feces were removed by means of tweezers, the part was washed and a score of morbid conditions was evaluated and tissue weight was measured. The score of morbid conditions and a tissue weight increase-suppressing ratio were calculated as in the evaluation method of the above acetic acid-induced enteritis-suppressing action.

With `CCCOc1ccc(-c2ccc(C(=O)[O-])s2)cc1C#N.[Na+]` [Example 1, sodium 5-(3-cyano-4-n-propoxyphenyl)thiophene-2-carboxylate] the “suppression of intestinal tissue weight increase” value was at least 70%.

Each compound was assayed against T1, xanthine oxidase (derived from butter milk) (Bos taurus, UniProt P80457) (assay: Xanthine oxidase-inhibitory activity (pterin oxidation, fluorescence)). Settings: xanthine oxidase 0.03 units/ml, pterin 5 μM.
T1 construct: xanthine oxidase (derived from butter milk, manufactured by Sigma); purchased Sigma; host or cells: buttermilk (natural source)
Type: biochemical
Experimental: A test compound was dissolved in DMSO (manufactured by Nakarai) so as to be a concentration of 10 mM and then used after the concentration was adjusted to an aimed one at use.
The evaluation of xanthine oxidase-inhibitory activity of the compound of the invention was carried out using a method described in a document (Free Radic. Biol. Med. 6, 607-615, 1992) with partial modification. Namely, xanthine oxidase (derived from butter milk, manufactured by Sigma) was adjusted to 0.03 units/ml using a 50 mM phosphate buffer and was added to a 96-well plate in an amount of 50 μl/well. Each test compound diluted so as to be a final concentration was added thereto in an amount of 2 μl/well, followed by treatment at room temperature for 20 minutes. Pterin (manufactured by Sigma) was added thereto so as to be a final concentration of 5 μM, followed by reaction at room temperature for 10 minutes. Measurement was performed using a microplate reader saphire (manufactured by Tecan) under conditions of excitation at 345 nm and emission at 390 nm (pterin was oxidized by xanthine oxidase into isoxanthopterin, which emitted a light under the conditions).
The concentration of the test compound at which 50% inhibition was observed (IC50 value) was calculated, the emissions of isoxanthopterin under conditions of the presence or absence of xanthine oxidase being 0% inhibition and 100% inhibition, respectively.

T1 sequence (P80457 whole entry): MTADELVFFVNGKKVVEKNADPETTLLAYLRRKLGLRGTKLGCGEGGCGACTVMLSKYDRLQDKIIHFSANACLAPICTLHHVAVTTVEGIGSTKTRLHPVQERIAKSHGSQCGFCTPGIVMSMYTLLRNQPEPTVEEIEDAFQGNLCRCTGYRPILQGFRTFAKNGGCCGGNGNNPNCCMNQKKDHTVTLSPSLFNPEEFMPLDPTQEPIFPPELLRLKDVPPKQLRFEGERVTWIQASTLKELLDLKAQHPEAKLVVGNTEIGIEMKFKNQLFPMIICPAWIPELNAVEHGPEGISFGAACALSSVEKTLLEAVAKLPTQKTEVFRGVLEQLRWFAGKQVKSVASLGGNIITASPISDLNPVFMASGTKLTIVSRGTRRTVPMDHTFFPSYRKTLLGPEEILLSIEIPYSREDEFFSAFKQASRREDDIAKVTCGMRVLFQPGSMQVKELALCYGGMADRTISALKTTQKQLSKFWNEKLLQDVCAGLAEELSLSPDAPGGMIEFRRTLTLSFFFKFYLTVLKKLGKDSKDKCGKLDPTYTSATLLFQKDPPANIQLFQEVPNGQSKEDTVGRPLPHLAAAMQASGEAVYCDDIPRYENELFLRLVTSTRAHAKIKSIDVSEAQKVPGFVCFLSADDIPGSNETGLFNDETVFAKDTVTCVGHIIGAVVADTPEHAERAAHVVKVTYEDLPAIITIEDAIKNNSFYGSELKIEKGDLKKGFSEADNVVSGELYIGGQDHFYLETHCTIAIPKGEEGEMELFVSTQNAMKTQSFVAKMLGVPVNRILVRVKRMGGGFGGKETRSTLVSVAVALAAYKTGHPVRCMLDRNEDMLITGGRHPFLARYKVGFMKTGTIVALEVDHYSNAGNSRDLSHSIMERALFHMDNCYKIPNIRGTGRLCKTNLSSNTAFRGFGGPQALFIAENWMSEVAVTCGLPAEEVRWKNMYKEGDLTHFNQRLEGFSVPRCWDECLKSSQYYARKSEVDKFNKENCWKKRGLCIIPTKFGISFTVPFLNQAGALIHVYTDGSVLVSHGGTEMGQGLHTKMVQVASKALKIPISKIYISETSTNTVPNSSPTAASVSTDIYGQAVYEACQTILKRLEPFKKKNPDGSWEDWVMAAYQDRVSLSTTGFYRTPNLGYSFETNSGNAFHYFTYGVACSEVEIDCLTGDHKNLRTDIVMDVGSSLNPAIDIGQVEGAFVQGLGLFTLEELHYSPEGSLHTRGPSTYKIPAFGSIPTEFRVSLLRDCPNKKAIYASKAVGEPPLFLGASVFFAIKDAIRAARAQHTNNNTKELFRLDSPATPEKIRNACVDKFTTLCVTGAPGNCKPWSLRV

Going from `CCCOc1ccc(-c2ccc(C(=O)[O-])s2)cc1C#N.[Na+]` [Example 1, sodium 5-(3-cyano-4-n-propoxyphenyl)thiophene-2-carboxylate] to `N#CCCCOc1ccc(-c2ccc(C(=O)O)s2)cc1C#N` [Example 23], the IC50 rises from 3.2 nM to 13 nM (4.1-fold).

`CC(C)COc1ccc(-c2ccc(C(=O)O)s2)cc1[N+](=O)[O-]` [Example 3, 5-(3-nitro-4-isobutoxyphenyl)thiophene-2-carboxylic acid] and `CC(C)COc1ccc(-c2ccc(-c3nnn[nH]3)s2)cc1[N+](=O)[O-]` [Example 5, 5-[5-(4-isobutoxy-3-nitrophenyl)-2-thienyl]-1H-tetrazole] are within 1.5-fold of each other in IC50: 6.9 nM for the first, 9.3 nM for the second.

`CC(C)COc1ccc(-c2cc(F)c(C(=O)O)s2)cc1C#N` [Example 4, sodium 5-(3-cyano-4-isobutoxyphenyl)-3-fluorothiophene-2-carboxylate] and `CC(C)COc1c(F)cc(-c2ccc(C(=O)O)s2)cc1C#N` [Example 54] are within 1.5-fold of each other in IC50: 2.2 nM for the first, 1.5 nM for the second.

`CCCCN(C)c1ccc(-c2ccc(C(=O)O)s2)cc1C#N` [Example 8, sodium 5-{4-[butyl(methyl)amino]-3-cyanophenyl)thiophene-2-carboxylate] and `CC(C)CSc1ccc(-c2ccc(C(=O)O)s2)cc1C#N` [Example 9, sodium 5-[3-cyano-4-(isobutylthio)phenyl]thiophene-2-carboxylate] are within 1.5-fold of each other in IC50: 4.1 nM for the first, 2.9 nM for the second.

`N#Cc1cc(-c2ccc(C(=O)O)s2)ccc1OCc1cccnc1` [Example 19] and `N#Cc1cc(-c2ccc(C(=O)O)s2)ccc1OCc1ccccc1` [Example 24] are within 1.5-fold of each other in IC50: 2.8 nM for the first, 2.5 nM for the second.

`N#Cc1cc(-c2ccc(C(=O)O)s2)ccc1OCCn1cccc1` [Example 22] and `N#Cc1cc(-c2ccc(C(=O)O)s2)ccc1Oc1ccccc1` [Example 34] are within 1.5-fold of each other in IC50: 5.1 nM for the first, 6.3 nM for the second.

`N#Cc1cc(-c2ccc(C(=O)O)s2)ccc1N1CCCCC1` [Example 27] and `CC1CCN(c2ccc(-c3ccc(C(=O)O)s3)cc2C#N)CC1` [Example 30] are within 1.5-fold of each other in IC50: 1.8 nM for the first, 2 nM for the second.

Compared with `CC(=O)c1cc(-c2ccc(C(=O)O)s2)ccc1OC1CCCC1` [Example 33], `N#Cc1cc(-c2cc(F)c(C(=O)O)s2)ccc1OC/C=C/c1ccccc1` [Example 47] is 1.6-fold lower in IC50: 5.9 nM for the first, 3.7 nM for the second. The second is the more potent here.

What follows are compounds tested on ICR mice (assay: Serum uric acid-lowering action after oral administration). Settings: after 2 hours from oral administration, 1 mg/kg.
Type: in vivo
Experimental: A test compound was orally administered compulsorily to ICR mice using an oral sonde. After 2 hours, 6 hours, and, depending on the compound, further 24 hours from the administration, blood was collected from an abdominal aorta and then serum was separated in a usual manner. Serum uric acid was measured on an absorptiometer (SPECTRA MAX 190, manufactured by Molecular Device) by an uricase method using a uric acid-measuring kit (Uric Acid C-TestWako: Wako Pure Chemical Industries, Ltd.) and a uric acid-lowering ratio was determined according to the following equation. Uric acid-lowering ratio (%)=(Uric acid level of control animal−Uric acid level of test compound-administered animal)×100/Uric acid level of control animal

Compound `CCCOc1ccc(-c2ccc(C(=O)[O-])s2)cc1C#N.[Na+]` [Example 1, sodium 5-(3-cyano-4-n-propoxyphenyl)thiophene-2-carboxylate] has a uric acid-lowering ratio of 66%.
